Test results as given in patent US20230174485A1, “LIPOXYGENASE INHIBITORS” (SRI International, priority 2020, published 2023).
Where “and” joins values, the source holds several entries; their conditions need not be identical. Identical values can stand only once.

How the values were obtained:
Assay type in all cases: biochemical
[1] = biological target: T1, recombinant 5-LOX (Homo sapiens, UniProt P09917); experiment: 5-LOX fluorescent assay; details: several values in one cell = repeat determinations; read-out: IC50 (μM) values for in vitro lipoxygenase inhibition, 5-LOX
T1 sequence (P09917 1-674): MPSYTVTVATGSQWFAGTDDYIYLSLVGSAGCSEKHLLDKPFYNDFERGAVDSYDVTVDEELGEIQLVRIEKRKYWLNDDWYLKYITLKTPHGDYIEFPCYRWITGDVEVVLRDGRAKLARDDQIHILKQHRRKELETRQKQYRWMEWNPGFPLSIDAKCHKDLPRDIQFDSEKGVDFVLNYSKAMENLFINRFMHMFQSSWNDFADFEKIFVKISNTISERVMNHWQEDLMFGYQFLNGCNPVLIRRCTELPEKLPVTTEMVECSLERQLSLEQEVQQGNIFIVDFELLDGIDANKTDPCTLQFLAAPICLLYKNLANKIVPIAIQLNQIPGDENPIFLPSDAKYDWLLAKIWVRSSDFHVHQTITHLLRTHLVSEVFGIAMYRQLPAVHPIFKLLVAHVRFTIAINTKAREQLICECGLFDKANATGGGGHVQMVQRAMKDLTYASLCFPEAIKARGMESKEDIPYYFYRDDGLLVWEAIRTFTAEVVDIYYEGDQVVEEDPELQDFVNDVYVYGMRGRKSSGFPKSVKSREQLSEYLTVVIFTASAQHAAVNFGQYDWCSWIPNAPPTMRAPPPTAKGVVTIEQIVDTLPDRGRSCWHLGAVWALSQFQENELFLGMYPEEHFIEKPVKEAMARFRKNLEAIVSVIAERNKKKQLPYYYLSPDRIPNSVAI
Outline: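 Lysate containing recombinant 5-LOX was pre-incubated 15 min with compounds in 50 mM Tris pH 7.5, 0.1 mM EDTA, 0.3 mM CaCl2. The reaction was started with 20 μM arachidonic acid, 100 μM ATP and 1 μM DHR123.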

[2] = biological target: T2, recombinant 15-LOX enzyme (Homo sapiens, UniProt P16050); experiment: 15-LOX fluorescent assay; details: several values in one cell = repeat determinations; read-out: IC50 (μM) values for in vitro lipoxygenase inhibition, 15-LOX
T2 sequence (P16050 1-662): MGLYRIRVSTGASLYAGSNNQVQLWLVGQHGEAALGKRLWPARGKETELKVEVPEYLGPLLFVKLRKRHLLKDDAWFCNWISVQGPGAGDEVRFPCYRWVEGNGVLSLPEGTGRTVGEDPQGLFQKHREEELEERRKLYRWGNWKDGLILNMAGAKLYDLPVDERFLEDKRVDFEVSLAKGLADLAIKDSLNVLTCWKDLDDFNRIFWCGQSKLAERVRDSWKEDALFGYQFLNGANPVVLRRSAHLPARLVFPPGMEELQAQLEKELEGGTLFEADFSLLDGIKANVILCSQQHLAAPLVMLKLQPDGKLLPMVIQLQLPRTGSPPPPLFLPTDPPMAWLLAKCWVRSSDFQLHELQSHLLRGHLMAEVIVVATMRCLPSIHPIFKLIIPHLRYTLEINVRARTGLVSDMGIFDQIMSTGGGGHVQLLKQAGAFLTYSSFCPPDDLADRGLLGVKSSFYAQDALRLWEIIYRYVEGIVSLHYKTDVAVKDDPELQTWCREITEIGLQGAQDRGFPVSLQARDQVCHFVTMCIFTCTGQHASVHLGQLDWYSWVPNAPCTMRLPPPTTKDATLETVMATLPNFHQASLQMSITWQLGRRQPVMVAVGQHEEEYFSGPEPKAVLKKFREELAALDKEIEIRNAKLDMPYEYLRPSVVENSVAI
Outline: (§1)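 Compounds pre-incubated 15 min with 100 nM 12-LOX or 50 nM 15-LOX in 50 mM Tris pH 7.5, 0.05% Tween-20; reaction started with 20 μM AA/LA plus 1 μM DHR123.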

[3] = biological target: T3, recombinant 12-LOX enzyme (Homo sapiens, UniProt P18054); experiment: 12-LOX fluorescent assay; details: several values in one cell = repeat determinations; read-out: IC50 (μM) values for in vitro lipoxygenase inhibition, 12-LOX
T3 sequence (P18054 1-663): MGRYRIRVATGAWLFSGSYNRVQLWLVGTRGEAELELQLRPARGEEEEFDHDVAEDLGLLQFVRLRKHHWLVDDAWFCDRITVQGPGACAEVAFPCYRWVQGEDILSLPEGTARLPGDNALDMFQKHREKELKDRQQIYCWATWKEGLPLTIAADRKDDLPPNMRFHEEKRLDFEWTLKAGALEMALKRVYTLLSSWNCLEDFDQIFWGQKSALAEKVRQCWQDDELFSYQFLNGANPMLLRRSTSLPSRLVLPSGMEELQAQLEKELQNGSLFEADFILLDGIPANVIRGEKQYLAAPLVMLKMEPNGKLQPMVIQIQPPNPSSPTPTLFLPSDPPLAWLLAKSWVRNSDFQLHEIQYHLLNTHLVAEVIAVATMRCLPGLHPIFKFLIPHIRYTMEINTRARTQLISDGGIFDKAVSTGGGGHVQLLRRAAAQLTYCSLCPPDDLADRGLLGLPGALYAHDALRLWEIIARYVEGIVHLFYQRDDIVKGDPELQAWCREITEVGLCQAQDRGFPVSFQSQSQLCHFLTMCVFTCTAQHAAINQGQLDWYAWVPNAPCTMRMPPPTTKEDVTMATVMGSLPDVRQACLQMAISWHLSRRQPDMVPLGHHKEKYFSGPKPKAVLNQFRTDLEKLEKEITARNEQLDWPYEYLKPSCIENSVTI
Outline: as §1

| IC50 [1] | IC50 [2] | IC50 [3] | Structure (SMILES) |
| --- | --- | --- | --- |
| 0.19 µM | 0.2 µM | 0.03 µM | Cc1cc2[nH]c3ccc(F)cc3c2cc1NCC1(Cn2cncn2)COC1 [SS20308-0233-01, N-((3-((1H-1,2,4-triazol-1-yl)methyl)oxetan-3-yl)methyl)-6-fluoro-2-methyl-9H-carbazol-3-amine] |
| 0.2 µM | 1.13 µM | 0.03 µM | Fc1cccc2c1[nH]c1cc3c(cc12)CCN3CCn1cncn1 [SS20308-0243-01, 1-(2-(1H-1,2,4-triazol-1-yl)ethyl)-8-fluoro-1,2,3,9-tetrahydropyrrolo[2,3-b]car bazole] |
| 0.45 µM and 0.56 µM | 0.75 µM and 0.73 µM | 0.05 µM and 0.22 µM | Clc1cc2c(cc1NCCn1cncn1)Nc1ccccc1CC2 [SS20308-0251-01, N-(2-(1H-1,2,4-triazol-1-yl)ethyl)-2-chloro-10,11-dihydro-5H-dibenzo[b,f]azepin-3-amine] |
| 0.06 µM and 0.08 µM | 0.09 µM and 0.55 µM | 0.16 µM | CN(C)CCc1cc(Nc2cccc(Cl)c2)cc2c1[nH]c1ccccc12 [SS20308-0258-01, N-(3-chlorophenyl)-1-(2-(dimethylamino)ethyl)-9H-carbazol-3-amine] |
| 0.55 µM | 0.55 µM | 0.11 µM | c1ccc2c(c1)CCc1cc(C3CC3)c(NCCn3cncn3)cc1N2 [SS20308-0269-01, N-(2-(1H-1,2,4-triazol-1-yl)ethyl)-2-cyclopropyl-10,11-dihydro-5H-dibenzo[b,f]azepin-3-amine] |
| 0.15 µM | 1.08 µM and 0.9 µM | 0.1 µM | CN(C)CCCNc1ccc2c(c1)Nc1ccccc1CC2 [SS20308-0270-01, N^1-(10,11-dihydro-5H-dibenzo[b,f]azepin-3-yl)-N^3,N^3-dimethylpropane-1,3-diamine] |
| 0.15 µM and 0.17 µM | 0.28 µM and 0.32 µM | 0.11 µM and 0.12 µM | c1ccc2c(c1)CCc1cc(C3CCCCC3)c(NCCn3cncn3)cc1N2 [SS20308-0271-01, N-(2-(1H-1,2,4-triazol-1-yl)ethyl)-2-cyclohexyl-10,11-dihydro-5H-dibenzo[b,f]azepin-3-amine] |
| 5.6 µM | 9.82 µM | 2.66 µM | Clc1c(NCCn2cncn2)ccc2c1Nc1ccccc1CC2 [SS20308-0273-01, N-(2-(1H-1,2,4-triazol-1-yl)ethyl)-4-chloro-10,11-dihydro-5H-dibenzo [b,f]azepin-3-amine] |
| 0.13 µM and 0.06 µM | 0.28 µM and 0.1 µM | 0.03 µM and 0.02 µM | c1ccc2c(c1)CCc1cc(NCCn3cncn3)ccc1N2 [SS20308-0276-01, N-(2-(1H-1,2,4-triazol-1-yl)ethyl)-10,11-dihydro-5H-dibenzo[b,f]azepin-2-amine] |
| 0.32 µM | 0.57 µM | 0.04 µM | CN(C)CCc1cc(Nc2ccc(F)cc2Cl)cc2c1[nH]c1ccccc12 [SS20308-0277-01, N-(2-chloro-4-fluorophenyl)-1-(2-(dimethylamino)ethyl)-9H-carbazol-3-amine] |
| 0.06 µM and 0.12 µM | 0.02 µM and 0.16 µM | 0.05 µM and 0.06 µM | CN(C)CCc1cc(Nc2cccnc2)cc2c1[nH]c1ccccc12 [SS20308-0291-01, 1-(2-(dimethylamino)ethyl)-N-(pyridin-3-yl)-9H-carbazol-3-amine] |
| 0.66 µM | 0.49 µM | 0.22 µM | Fc1ccc2[nH]c3cc(C(F)(F)F)c(NCC4(Cn5cncn5)COC4)cc3c2c1 [SS20308-0295-01, N-((3-((1H-1,2,4-triazol-1-yl)methyl)oxetan-3-yl)methyl)-6-fluoro-2-(trifluoromethyl)-9H-carbazol-3-amine] |
| 0.12 µM | 0.9 µM | 0.09 µM | c1ccc2c(c1)CCc1ccc(NCCCN3CCOCC3)cc1N2 [SS20308-0303-01, N-(3-morpholinopropyl)-10,11-dihydro-5H-dibenzo[b,f]azepin-3-amine] |
| 0.2 µM | 0.4 µM | 0.09 µM | Fc1cc2[nH]c3ccccc3c2cc1NCC1(Cn2cncn2)COC1 [SS20308-0304-01, N-((3-((1H-1,2,4-triazol-1-yl)methyl)oxetan-3-yl)methyl)-2-fluoro-9H-carbazol-3-amine] |
| 0.2 µM | 0.58 µM | 0.14 µM | c1ccc2c(c1)CCc1cc(C3CCOCC3)c(NCCn3cncn3)cc1N2 [SS20308-0305-01, N-(2-(1H-1,2,4-triazol-1-yl)ethyl)-2-(tetrahydro-2H-pyran-4-yl)-10,11-dihydro-5H-dibenzo[b,f]azepin-3-amine] |
| 0.09 µM | 0.15 µM | 0.03 µM | Fc1c(NCC2(Cn3cncn3)COC2)ccc2[nH]c3ccccc3c12 [SS20308-0312-01, N-((3-((1H-1,2,4-triazol-1-yl)methyl)oxetan-3-yl)methyl)-4-fluoro-9H-carbazol-3-amine] |
